Consider 68 molecules from ChEMBL document CHEMBL3639166, “Heteroaryloxyheterocyclyl compounds as PDE10 inhibitors” (2013).

The target of the experiment is T1, cAMP and cAMP-inhibited cGMP 3',5'-cyclic phosphodiesterase 10A (Rattus norvegicus, UniProt Q9QYJ6).
T1 sequence (Q9QYJ6 whole entry): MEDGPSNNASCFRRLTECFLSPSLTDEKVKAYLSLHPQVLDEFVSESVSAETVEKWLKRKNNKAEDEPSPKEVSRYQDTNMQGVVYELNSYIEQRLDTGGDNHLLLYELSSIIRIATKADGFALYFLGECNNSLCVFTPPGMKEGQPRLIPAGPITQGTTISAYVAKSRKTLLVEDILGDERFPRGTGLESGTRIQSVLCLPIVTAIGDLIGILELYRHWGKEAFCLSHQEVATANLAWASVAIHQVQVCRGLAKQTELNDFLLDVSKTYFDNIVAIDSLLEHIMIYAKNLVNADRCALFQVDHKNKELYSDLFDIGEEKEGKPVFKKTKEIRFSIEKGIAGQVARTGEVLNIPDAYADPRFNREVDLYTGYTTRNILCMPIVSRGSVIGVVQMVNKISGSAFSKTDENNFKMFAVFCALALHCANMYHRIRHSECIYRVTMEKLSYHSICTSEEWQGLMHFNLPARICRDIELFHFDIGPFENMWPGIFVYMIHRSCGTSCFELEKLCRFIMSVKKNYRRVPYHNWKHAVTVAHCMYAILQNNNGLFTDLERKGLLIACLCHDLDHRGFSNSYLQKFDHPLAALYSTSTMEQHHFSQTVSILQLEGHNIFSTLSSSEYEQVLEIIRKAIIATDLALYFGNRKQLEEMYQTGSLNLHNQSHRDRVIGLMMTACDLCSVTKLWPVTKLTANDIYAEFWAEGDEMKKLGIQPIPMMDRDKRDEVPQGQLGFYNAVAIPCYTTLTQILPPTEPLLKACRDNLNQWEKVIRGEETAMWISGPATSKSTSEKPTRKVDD
The experiment can be described thus: Enzyme Inhibition Assay: Enzyme activity: An IMAP TR-FRET assay was used to analyze the enzyme activity (Molecular Devices Corp., Sunnyvale, Calif).

`COCC1CCN(c2nccnc2OC2CCN(c3ccc4ccccc4n3)CC2)CC1` yielded an IC50 of 1120 nM. To `O=Cc1ccc(N2CCC(Oc3ncccc3C3CCOCC3)CC2)nc1` belongs 1480 nM; to `Cc1cc(-c2cnc(N3CCC(CO)CC3)nc2OC2CN(c3ccc4ccccc4n3)C2)ccn1`, 0.3 nM. To `c1ccc(Cc2ccc3oc(-c4nccnc4OC4CN(c5ccc6ccccc6n5)C4)cc3c2)cc1` belongs 363 nM.

As for `CC(=O)N1CCC(c2cc(C)cnc2OC2CN(c3ccc4ccccc4n3)C2)CC1`, half-maximal inhibition (IC50) required 67.8 nM. To `CN1CCCN(c2nccnc2OC2CN(c3ccc4ccccc4n3)C2)CC1` belongs 2990 nM; to `O=C(c1ccc2ccccc2n1)N1CCC(Oc2nccnc2N2CCOCC2)CC1`, 1080 nM. Next, `N#Cc1ccc(-c2nccnc2OC2CN(c3ccc4ccccc4n3)C2)cc1`: 39.4 nM; `CC(=O)N1CCC=C(c2nccnc2OC2CN(C(=O)c3nc4ccccc4[nH]3)C2)C1`: 121 nM. Molecule `O=C(c1ccccn1)N1CCC(Oc2ncccc2C2CCOCC2)CC1` yielded an IC50 of 1260 nM. Against the preceding molecule, the IC50 is about 10-fold higher. Regarding `N#Cc1ccc(-c2nccnc2OC2CN(c3ccc4ccccc4n3)C2)cn1`, the IC50 stood at 50.6 nM. Next, `CC(=O)N1CCC(c2cccnc2OC2CCN(c3ncccc3Cl)CC2)CC1`: 3580 nM.

Consider `O=C(c1nccc2ccccc12)N1CCC(Oc2nccnc2N2CCOCC2)CC1`, for which the IC50 turned out to be 5400 nM. To `O=C(c1nc2ccccc2[nH]1)N1CC(Oc2nccnc2C2CCOCC2)C1` belongs 884 nM; to `CNC(=O)c1ccc(-c2nccnc2OC2CN(c3ccc4ccccc4n3)C2)cc1`, 15 nM; to `OCC1CN(c2nccnc2OC2CN(c3ccc4ccccc4n3)C2)CCO1` (stereo not drawn), 88.6 nM.

For `OCC1CCN(c2nccnc2NC2CN(c3ccc4ccccc4n3)C2)CC1`, the IC50 was 20 nM. Next, `c1cnc(O[C@@H]2CCN(c3ccc4ccccc4n3)C2)c(C2CCOCC2)c1`: 384 nM; `COc1cccc(-c2cnc(N3CCC(CO)CC3)nc2OC2CN(c3ccc4ccccc4n3)C2)c1`: 3.3 nM; `CC(=O)N1CCC(c2nccnc2OC2CN(C(=O)c3ccc[nH]3)C2)CC1`: 139 nM.

`Clc1ccc(N2CCC(Oc3ncccc3C3CCOCC3)CC2)nc1` returned an IC50 of 1410 nM. `CC(=O)N1CC=C(c2nccnc2OC2CN(C(=O)c3ccc[nH]3)C2)CC1` registered an IC50 of 210 nM. To `OCC1CCCN(c2nccnc2OC2CN(c3ccc4ccccc4n3)C2)C1` (stereo not drawn) belongs 40.6 nM; to `OC1CCN(c2nccnc2OC2CN(c3ccc4ccccc4n3)C2)CC1`, 26.1 nM; to `COc1cnccc1-c1cccnc1OC1CN(C(=O)OCc2ccccc2)C1`, 7640 nM. To `OCC1CCN(c2ncc(F)c(OC3CN(c4ccc5ccccc5n4)C3)n2)CC1` belongs 20 nM; to `Nc1ncc2cc(-c3nccnc3OC3CN(c4ccc5ccccc5n4)C3)ccc2n1`, 3.3 nM. Next, `OCC1CCN(c2nc3ccccc3nc2OC2CN(c3ccc4ccccc4n3)C2)CC1`: 9.75 nM. For the molecule `O=C(c1nc2ccccc2[nH]1)N1CC[C@@H](Oc2nccnc2C2CCOCC2)C1`, the midpoint of inhibition, the IC50, lay at 2780 nM. Next, `c1cnc(OC2CCN(c3nc4ccccc4[nH]3)CC2)c(C2CCOCC2)c1`: 199 nM. To `COC1CCN(c2nccnc2OC2CCN(c3ccc4ccccc4n3)CC2)CC1` belongs 59.6 nM. Take `CC(O)C1CCN(c2nccnc2OC2CN(c3ccc4ccccc4n3)C2)CC1` (stereo not drawn): it took 46.9 nM to reach half-maximal inhibition (IC50).

Take `OCc1ccc(-c2nccc(OC3CN(c4ccc5ccccc5n4)C3)n2)cc1`: it took 8.45 nM to reach half-maximal inhibition (IC50). On to `c1ccc2nc(N3CC[C@H](Oc4nccnc4C4CCOCC4)C3)ccc2c1`, for which half-maximal inhibition (IC50) required 447 nM. Next, `CC(=O)N1CCCC(c2cccnc2OC2CN(C(=O)c3cc4ccccc4[nH]3)C2)C1` (stereo not drawn): 886 nM; `CC(=O)N1CCC(c2nccnc2OC2CCN(c3cccc(Cl)n3)CC2)CC1`: 235 nM; `c1ccc2c(N3CC(Oc4nccnc4C4CCOCC4)C3)nccc2c1`: 4410 nM. To `CC(=O)N1CCC(c2cc(F)cnc2OC2CN(c3ccc4ccccc4n3)C2)CC1` belongs 64.8 nM; to `Brc1cccnc1OC1CN(c2cccnn2)C1`, 25.3 nM; to `O=C(c1nc2ccccc2[nH]1)N1CC(Oc2nccnc2C2=CCOCC2)C1`, 222 nM.

As to `c1ccc2c(N3CC[C@H](Oc4nccnc4C4CCOCC4)C3)nccc2c1`, the IC50 was found to be 819 nM. To `COc1cccc(-c2nccnc2OC2CN(c3ccc4ccccc4n3)C2)c1` belongs 19 nM; to `c1ccc(-c2nccc(OC3CN(c4ccc5ccccc5n4)C3)n2)nc1`, 109 nM. Next, `O=C1CCC(c2nccnc2OC2CN(C(=O)c3nc4ccccc4[nH]3)C2)CC1`: 114 nM. To `O=C(c1nc2ccccc2[nH]1)N1CCC(Oc2ncccc2C2CCOCC2)CC1` belongs 116 nM; to `CC(=O)N1CCCC(c2cccnc2OC2CN(C(=O)c3ccc(C)nc3)C2)C1` (stereo not drawn), 8340 nM; to `c1ccc2[nH]c(N3CCC(Oc4nccnc4C4CCOCC4)CC3)nc2c1`, 229 nM.

In turn, `O=C(c1nc2ccccc2[nH]1)N1CC(Oc2nccnc2N2CCOCC2)C1` came in with an IC50 of 377 nM.

In turn, `c1ccc2nc(N3CC(Oc4nccnc4-c4ccncc4)C3)ccc2c1` returned an IC50 of 24.5 nM.

Consider `CN(C)C1CCN(c2nccnc2OC2CN(c3ccc4ccccc4n3)C2)CC1`, for which the IC50 worked out at 520 nM.

As for `c1cnc(O[C@H]2CCN(c3nc4ccccc4[nH]3)C2)c(C2CCOCC2)c1`, half-maximal inhibition (IC50) required 2470 nM. Next, `COc1ncccc1-c1cnc(N2CCC(CO)CC2)nc1OC1CN(c2ccc3ccccc3n2)C1`: 0.6 nM; `c1ccc2cc(N3CC[C@H](Oc4nccnc4C4CCOCC4)C3)ncc2c1`: 1360 nM. Regarding `O=C(c1nccc2ccccc12)N1CCC(Oc2ncccc2N2CCOCC2)CC1`, the IC50 was determined as 11100 nM. To `Cc1cc(-c2nccnc2OC2CCN(C(=O)c3ccc4ccccc4n3)CC2)ccn1` belongs 2660 nM; to `OCC1CCN(c2nccnc2O[C@H]2CCN(c3ccc4ccccc4n3)C2)CC1`, 78 nM. To `CC(=O)N1CC=C(c2nccnc2OC2CN(C(=O)c3cc(C)c[nH]3)C2)CC1` belongs 250 nM; to `OC1CN(c2nccnc2OC2CCN(c3ccc4ccccc4n3)CC2)C1`, 1220 nM; to `CC1CN(c2nccnc2OC2CN(c3ccc4ccccc4n3)C2)CCO1` (stereo not drawn), 62.8 nM. To `c1ccc2cc(N3CC(Oc4nccnc4C4CCOCC4)C3)ncc2c1` belongs 4960 nM; to `Cc1ccccc1-c1nccnc1OC1CN(c2ccc3ccccc3n2)C1`, 128 nM. As for `CC(C)(O)C1CCN(c2nccnc2OC2CN(c3ccc4ccccc4n3)C2)CC1`, inhibition was half-maximal at 83.6 nM (IC50). Next, `CN1CCN(c2nccnc2OC2CN(c3ccc4ccccc4n3)C2)CC1`: 683 nM; `c1cnc(O[C@H]2CCN(c3nccc4ccccc34)C2)c(C2CCOCC2)c1`: 730 nM; `C1=CCN(c2nccnc2OC2CN(c3ccc4ccccc4n3)C2)CC1`: 314 nM. With `CC(=O)N1CCCC(c2cccnc2OC2CN(C(=O)CC(C)(C)C)C2)C1` (stereo not drawn), 41800 nM corresponded to half-maximal inhibition (IC50).

Consider `COC(=O)c1ccc(N2CCC(Oc3ncccc3C3CCOCC3)CC2)nc1`, for which the IC50 came to 198 nM.

Molecule `CC(C)(C)OC(=O)N1CC=C(c2cnc(N3CCC(CO)CC3)nc2OC2CN(c3ccc4ccccc4n3)C2)CC1` returned an IC50 of 0.3 nM.
